The numbers were not newly measured in patent US20030096334A1, “Use of injectable dyes for staining an anterior lens capsule and vitreo-retinal interface” (priority 2001, published 2003), which cites them from elsewhere.

For this data set the following is noted: descriptive term only.

Consider `Cc1cc(-c2ccc(/N=N/c3ccc4c(S(=O)(=O)O)cc(S(=O)(=O)O)c(N)c4c3O)c(C)c2)ccc1/N=N/c1ccc2c(S(=O)(=O)O)cc(S(=O)(=O)O)c(N)c2c1O` [Evans Blue, Tetrasodium 6.6′-[3,3′-dimethylbiphenyl-4,4′-diylbis(azo)]bis[4-amino-t-hydroxynaphthalene-1,3-disulphonate]], for which the solubility in water entry was “very soluble”.
